Source: patent US20120316203A1, “Compositions and Methods for Inhibition of Cancers” (THE OHIO STATE UNIVERSITY RESEARCH FOUNDATION, priority 2009, published 2012)

Assays:
[1] = test system: A2780 cells; test: Intracellular ROS by DCF fluorescence, A2780; type: cell-based, human; conditions: 5 or 10 μM, 12 h
Experimental: The ROS levels in cells treated with DAPs were determined using H2DCF-DA, a membrane-permeative fluorogenic probe. The acetate and acetoxymethyl ester groups of this probe are enzymatically cleaved inside living cells. The probe can then be oxidized by intracellular oxidants (ROS) to give a product, DCF, which emits a strong, green fluorescence (λex=504 nm; λem=529 nm). The fluorescence intensity is proportional to the level of cellular oxidants. Cells, grown to 80% confluence on 6-mm glass coverslips, were treated with […] H-4073, HO-3867, H-4318, or HO-4200 for 12 h, followed by incubation with H2DCF-DA. The cells were further incubated in the dark for 20 min and washed with protein-free medium, and then fluorescence images were immediately captured with a Nikon Eclipse TE2000-U camera system using excitation/emission at 495/520 nm. The captured images were then analyzed using MetaMorph image analysis software.

[2] = test system: USP2a, ubiquitinated FAS and FAK in A2780 and SKOV3 cells; test: Ubiquitination of FAS/FAK and USP2a level; type: cell-based, human
Experimental: FIG. 15: HO-3867 downregulates FAS and FAK levels via proteasome pathways. To catch any ubiquitinated proteins in the cell lysates, agarose beads coated with domains having affinity to ubiquitin were incubated in the lysates at 4° C. for 2 hours. After washing the beads, the ubiquitinated proteins were subjected to immunoblot for FAS and FAK and blotted by the ubiquitin antibody. A predominant ubiquitination of FAS and FAK is seen in the HO-3867-treated A2780 and SKOV3 cells under proteasomal inhibition using MG 132 (50 μM).
The intracellular amount of rapid-turnover proteins, such as FAS and FAK, is tightly regulated by the ubiquitin-dependent proteolytic pathway. The fast and significant decrease in the FAS and FAK expressions observed in the HO-3867-treated cells prompted us to check any involvement of ubiquitin-dependent degradation mechanism.

[3] = test system: hOSE cells; test: Cell viability by MTT assay, noncancerous hOSE control cells; type: cell-based, human
Experimental: (§1) Cell viability was determined by a colorimetric assay using MTT. In the mitochondria of living cells, yellow MTT undergoes a reductive conversion to formazan, producing a purple color. Cells, grown to […] confluence in 75-mm flasks, were trypsinized, counted, seeded in 96-well plates with an average population of 7,000 cells per well, incubated overnight, and then treated with curcumin, H-4073, or HO-3867 for 24 hours. All experiments were done using eight replicates and, repeated at least thrice.

[4] = test system: A2780R, PA-1, SKOV3, OV4, and OVCAR3 human ovarian cancer cell lines; test: Cell viability by MTT assay, other ovarian cancer cell lines; type: cell-based; conditions: 10 μmol/L; 24 h
Experimental: as §1

[5] = test system: A2780 cells; test: Cell proliferation by clonogenic assay; type: cell-based, human; conditions: 24 hours treatment, 7 days growth
Experimental: Cell survival was assessed by clonogenic assay. Cells at […] confluence were trypsinized, rinsed, seeded onto 60-mm dishes (5×10^4 cells per dish), grown for 24 hours at 37° C., and treated afterward with H-4073 or HO-3867 for 24 hours. Nontreated cells served as controls. After treatment, the cells were washed twice with PBS, trypsinized, counted, and plated in 60-mm dishes in triplicate and incubated for an additional 7 days. The colonies were then stained with crystal violet (in ethyl alcohol) and counted using an automated colony counter (ColCount, Oxford Optronix). Each experiment was repeated at least five times.

[6] = target: T1, FAS in A2780 and SKOV3 cells (Homo sapiens, UniProt P49327); test: Fatty acid synthase activity assay; type: cell-based; conditions: 10 μM, 12 or 24 h, both cell lines
T1 construct: endogenous in cells; host or cells: A2780 and SKOV3 human ovarian cancer cells
Experimental: The FAS activity was determined spectrophotometrically at 37° C. in particle-free supernatants by measuring the decrease of absorption at 340 nm due to oxidation of NADPH.

[7] = test system: A2780 cells; test: Cell viability by MTT assay, A2780 cells; type: cell-based, human; conditions: 24 hours, dose series
Experimental: as §1

[8] = test system: HER1, SREBP1, ERK1/2, MMP-2 and VEGF in A2780 and SKOV3 cells; test: Blotting of FAS/FAK-regulating proteins; type: cell-based, human; conditions: 10 μM, 24 h
Experimental: Cells in RPMI 1640 medium were treated with DMSO (control) or HO-3867 (10 μM) for 24 h. Equal volumes of DMSO (0.1% v/v) were present in each treatment. Following treatment, the cell lysates were prepared in nondenaturing lysis buffer containing 10-mM Tris-HCl (pH 7.4), 150-mM NaCl, 1% Triton X-100, 1-mM EDTA, 1-mM EGTA, 0.3-mM phenylmethylsulfonyl fluoride, 0.2-mM sodium orthovanadate, 0.5% NP40, 1-μg/ml aprotinin, and 1-μg/ml leupetin. The lysates were centrifuged at 10,000×g for 20 min at 4° C., and the supernatant was separated. The protein concentration in the lysates was determined using a Pierce detergent-compatible protein assay kit. For Western blotting, 25 to 50 μg of protein lysate per sample was denatured in 2×SDS-PAGE sample buffer and subjected to SDS-PAGE on a 10% tris-glycine gel. The separated proteins were transferred to a PVDF membrane and blocked with 5% nonfat milk powder (w/v) in TBST (10-mM Tris, 10-mM NaCl, 0.1% Tween 20) for 1 h at room temperature or overnight at 4° C. The membranes were then incubated with the primary antibodies. The bound antibodies were detected with horseradish peroxidase (HRP)-labeled sheep anti-mouse IgG or HRP-labeled donkey anti-rabbit IgG using an enhanced chemiluminescence detection system (ECL Advanced kit). Protein expressions were determined using Image Gauge version 3.45.

[9] = Body weight and diet consumption of tumor-bearing animals; type: in vivo; conditions: 25, 50, and 100 ppm in feed, 5 weeks
Experimental: Cultured A2780 cancer cells (2×10^6 cells in […] of PBS) were s.c. injected into the back of 6-week-old BALB/c nude mice from the National Cancer Institute. Five to 7 days later, when the tumors reached 3 to 5 mm in diameter, the mice were divided (n=9/group) in a manner to equalize the mean tumor diameter among the groups. The control group was given a normal diet (no treatment), whereas the experimental groups were treated using the DAP compounds mixed with the animal feed (Harlan Teklad) at three different levels (25, 50, and 100 ppm). The doses were chosen based on an initial dose-response study optimized to produce an observable effect on tumor growth. The size of the tumor was measured twice per week using a digital Vernier caliper. The tumor volume was determined from the orthogonal dimensions (d1, d2, d3) using the formula (d1×d2×d3)×π/6. Thirty five days after the beginning of HO-3867 treatment, the mice were sacrificed and the tumors were resected. The tumor tissues were then subjected to immunoblot analysis.
The mice were treated with HO-3867 and the tumor size as measured twice weekly for 5 weeks. […] We also measured the body weight and diet consumption of tumor-bearing animals.

T1 sequence (P49327 whole entry): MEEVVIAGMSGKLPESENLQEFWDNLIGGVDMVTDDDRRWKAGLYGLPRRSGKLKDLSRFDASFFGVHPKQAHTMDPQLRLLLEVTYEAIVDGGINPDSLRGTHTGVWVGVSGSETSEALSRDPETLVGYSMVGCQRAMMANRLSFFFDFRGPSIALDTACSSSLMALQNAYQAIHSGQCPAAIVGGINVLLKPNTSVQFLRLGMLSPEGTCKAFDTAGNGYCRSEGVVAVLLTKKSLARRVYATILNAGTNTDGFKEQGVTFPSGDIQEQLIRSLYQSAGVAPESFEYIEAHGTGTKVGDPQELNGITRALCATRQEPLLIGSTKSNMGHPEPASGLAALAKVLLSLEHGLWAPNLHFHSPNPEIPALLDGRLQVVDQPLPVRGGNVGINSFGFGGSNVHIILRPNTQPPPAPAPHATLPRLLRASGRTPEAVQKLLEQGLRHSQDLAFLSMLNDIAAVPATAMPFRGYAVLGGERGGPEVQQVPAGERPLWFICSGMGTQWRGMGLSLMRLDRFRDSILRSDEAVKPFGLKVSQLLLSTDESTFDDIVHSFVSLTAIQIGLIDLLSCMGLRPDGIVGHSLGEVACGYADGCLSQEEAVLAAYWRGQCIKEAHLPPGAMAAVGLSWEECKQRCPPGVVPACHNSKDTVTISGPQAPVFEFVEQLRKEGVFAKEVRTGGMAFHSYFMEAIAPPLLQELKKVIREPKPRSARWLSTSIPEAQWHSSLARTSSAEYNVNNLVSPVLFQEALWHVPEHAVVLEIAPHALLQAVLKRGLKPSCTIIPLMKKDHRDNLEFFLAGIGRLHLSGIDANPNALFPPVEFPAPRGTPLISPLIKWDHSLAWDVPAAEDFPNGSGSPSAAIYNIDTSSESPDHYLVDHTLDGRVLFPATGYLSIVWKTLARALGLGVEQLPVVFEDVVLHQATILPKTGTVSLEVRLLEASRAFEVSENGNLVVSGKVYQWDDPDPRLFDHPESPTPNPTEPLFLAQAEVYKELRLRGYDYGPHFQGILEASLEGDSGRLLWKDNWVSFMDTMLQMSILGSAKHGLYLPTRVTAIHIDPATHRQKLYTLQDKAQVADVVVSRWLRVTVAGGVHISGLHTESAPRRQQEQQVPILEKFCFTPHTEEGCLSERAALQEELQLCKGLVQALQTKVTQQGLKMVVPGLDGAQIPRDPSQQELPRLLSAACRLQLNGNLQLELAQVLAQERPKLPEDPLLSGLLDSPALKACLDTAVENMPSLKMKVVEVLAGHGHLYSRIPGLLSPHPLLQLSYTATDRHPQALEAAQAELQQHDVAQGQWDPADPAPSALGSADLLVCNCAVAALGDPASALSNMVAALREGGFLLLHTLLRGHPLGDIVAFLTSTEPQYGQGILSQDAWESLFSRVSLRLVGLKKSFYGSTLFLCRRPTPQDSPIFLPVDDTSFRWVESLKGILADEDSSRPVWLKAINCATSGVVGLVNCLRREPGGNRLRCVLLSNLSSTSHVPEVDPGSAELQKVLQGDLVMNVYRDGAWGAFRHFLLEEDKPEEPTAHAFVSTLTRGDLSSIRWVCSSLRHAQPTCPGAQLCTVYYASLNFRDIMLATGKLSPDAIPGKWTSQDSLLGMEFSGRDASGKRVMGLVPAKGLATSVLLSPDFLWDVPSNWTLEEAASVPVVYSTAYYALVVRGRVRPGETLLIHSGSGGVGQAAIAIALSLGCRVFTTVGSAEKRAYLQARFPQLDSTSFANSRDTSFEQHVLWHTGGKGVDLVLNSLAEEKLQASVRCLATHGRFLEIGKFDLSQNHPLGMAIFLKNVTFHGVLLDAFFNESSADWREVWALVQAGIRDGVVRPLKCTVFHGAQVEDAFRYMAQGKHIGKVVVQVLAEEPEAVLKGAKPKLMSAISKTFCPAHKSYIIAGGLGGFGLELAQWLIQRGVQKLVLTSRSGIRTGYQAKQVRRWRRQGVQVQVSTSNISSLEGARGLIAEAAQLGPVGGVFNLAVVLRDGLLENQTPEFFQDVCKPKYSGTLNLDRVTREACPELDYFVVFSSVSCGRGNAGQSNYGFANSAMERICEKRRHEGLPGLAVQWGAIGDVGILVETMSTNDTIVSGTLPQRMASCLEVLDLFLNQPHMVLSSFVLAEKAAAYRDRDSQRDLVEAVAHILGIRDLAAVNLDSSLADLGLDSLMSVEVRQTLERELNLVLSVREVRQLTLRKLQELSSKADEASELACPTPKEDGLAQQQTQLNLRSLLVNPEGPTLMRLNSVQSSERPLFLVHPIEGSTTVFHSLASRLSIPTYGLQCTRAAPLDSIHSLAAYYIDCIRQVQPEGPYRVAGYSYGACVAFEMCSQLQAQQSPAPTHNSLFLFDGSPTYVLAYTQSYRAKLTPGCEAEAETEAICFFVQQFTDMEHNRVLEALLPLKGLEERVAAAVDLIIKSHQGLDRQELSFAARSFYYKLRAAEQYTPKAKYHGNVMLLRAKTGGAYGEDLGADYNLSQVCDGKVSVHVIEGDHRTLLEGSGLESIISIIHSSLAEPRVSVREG

CC1(C)C=C(CN2C/C(=C\c3ccc(F)cc3)C(=O)/C(=C/c3ccc(F)cc3)C2)C(C)(C)N1O [HO-3867, 1-[(1-oxyl-2,2,5,5-tetramethyl-2,5-dihydro-1H-pyrrol-3-yl)methyl]-(3E,5E)-3,5-bis(4-fluorobenzylidene)piperidin-4-one]
intracellular ROS generation (DCF fluorescence) in A2780 cells [1]: comparable in inducing ROS generation
USP2a level [2]: clearly downregulated
polyubiquitination on FAS and FAK ([2]; co-incubation with MG-132): enhanced polyubiquitination
cytotoxicity to hOSE cells ([3]; 20 μmol/L): significant cytotoxicity
toxicity to noncancerous hOSE cells compared with H-4073 ([3]; equivalent doses): significantly less toxic
cytotoxicity to hOSE cells ([3]; up to 10 μmol/L): no significant cytotoxicity
cytotoxicity in other human ovarian cancer cell lines [4]: equally and significantly toxic
number of colonies (colony-forming ability) [5]: dose-dependent reduction in the number of colonies
FAS activity [6]: significantly reduced
cytotoxicity, viability of A2780 cells [7]: significantly higher toxicity when compared with curcumin
pHER2, pERK1/2, SREBP1, MMP-2, and VEGF [8]: inhibited
gross signs of toxicity (body weight, diet consumption) [9]: did not show any gross signs of toxicity
